Test [1] can be described thus: Antiproliferative activity against human MGC803 cells after 48 hrs by MTT assay. The conditions noted are these: MGC-803, 48 h. It is filed as functional, cell-based. A general note: Formazan colour is commonly taken as a measure of viable cells.
Test [2] is described as follows: Antiproliferative activity against human SGC7901 cells after 48 hrs by MTT assay. The test is classed as functional, cell-based. The conditions noted are these: SGC-7901, 48 h.
In the next test the test system is HepG2. Put plainly: Antiproliferative activity against human HepG2 cells after 48 hrs by MTT assay. The test is classed as functional, cell-based. The conditions noted are these: HepG2, 48 h.
Test [3] concerns the target Telomerase reverse transcriptase (Homo sapiens, UniProt O14746). The experiment in a line: Inhibition of telomerase in human MGC803 cells after 24 hrs by TRAP-PCR-ELISA method. The test is classed as cell-based, MGC-803. For orientation: An ELISA detects its analyte on a solid surface through an enzyme-linked reagent.

As usually defined, the EC50 is the concentration that produces a half-maximal response. Low readings indicate higher potency in that assay, high ones lower potency in that assay. In general, IC50 refers to the concentration needed to halve the response being measured.

SMILES strings stand for the structures.

Sequence of Telomerase reverse transcriptase (O14746 whole entry): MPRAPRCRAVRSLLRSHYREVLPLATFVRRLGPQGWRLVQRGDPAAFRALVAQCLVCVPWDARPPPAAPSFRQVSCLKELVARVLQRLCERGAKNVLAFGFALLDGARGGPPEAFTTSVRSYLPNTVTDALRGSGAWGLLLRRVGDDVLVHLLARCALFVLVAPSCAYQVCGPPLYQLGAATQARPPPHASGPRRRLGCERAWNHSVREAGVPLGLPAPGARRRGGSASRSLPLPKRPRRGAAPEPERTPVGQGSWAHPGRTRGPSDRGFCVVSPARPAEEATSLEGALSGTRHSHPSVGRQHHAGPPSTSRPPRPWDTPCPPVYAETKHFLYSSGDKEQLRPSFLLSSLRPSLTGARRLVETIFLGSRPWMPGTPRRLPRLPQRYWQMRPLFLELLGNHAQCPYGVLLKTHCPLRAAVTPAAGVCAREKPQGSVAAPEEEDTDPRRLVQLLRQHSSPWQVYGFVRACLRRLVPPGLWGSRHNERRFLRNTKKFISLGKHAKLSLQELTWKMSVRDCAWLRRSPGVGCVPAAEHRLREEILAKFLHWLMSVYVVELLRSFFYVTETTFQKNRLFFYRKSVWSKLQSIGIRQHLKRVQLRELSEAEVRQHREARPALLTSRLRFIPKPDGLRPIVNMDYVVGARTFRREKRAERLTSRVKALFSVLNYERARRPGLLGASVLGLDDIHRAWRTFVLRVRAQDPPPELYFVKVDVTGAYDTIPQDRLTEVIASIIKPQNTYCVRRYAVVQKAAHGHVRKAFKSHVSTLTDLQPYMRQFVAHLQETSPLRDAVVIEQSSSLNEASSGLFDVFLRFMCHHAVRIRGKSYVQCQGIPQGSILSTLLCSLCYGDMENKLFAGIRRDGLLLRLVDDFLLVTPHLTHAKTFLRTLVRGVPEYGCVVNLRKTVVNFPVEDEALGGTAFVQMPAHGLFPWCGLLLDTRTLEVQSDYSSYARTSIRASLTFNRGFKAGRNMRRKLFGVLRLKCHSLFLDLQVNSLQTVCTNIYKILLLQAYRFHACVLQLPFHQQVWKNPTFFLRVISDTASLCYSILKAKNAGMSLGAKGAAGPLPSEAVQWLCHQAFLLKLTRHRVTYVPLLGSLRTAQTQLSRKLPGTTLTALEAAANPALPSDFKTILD

`CC1=NN(S(=O)(=O)c2ccccc2I)C(c2cc(Br)ccc2O)C1` (stereo not given): the figures for the EC50 (in test [1]; in test [2]; with HepG2) were 52.5 µM, more than 60 µM and more than 60 µM, respectively.
For the molecule `CC1=NN(C(=O)CBr)C(c2ccccc2O)C1` (stereo not given), the 50% effective concentration (EC50) in test [1] stood at 3.65 µM; in test [2], 4.18 µM; in the test with HepG2, 14.4 µM.
`CC1=NN(S(=O)(=O)c2ccc(C(F)(F)F)cc2)C(c2cc(Br)ccc2O)C1` (stereo not given): the IC50 in test [3] is more than 60 µM. Moreover, the EC50 stood at 30 µM in test [1], 16.3 µM in test [2] and 22.1 µM in the test with HepG2.
Consider `CC1=NN(C(=O)CCl)C(c2cc(Cl)ccc2O)C1` (stereo not given), for which the EC50 worked out at 12.2 µM in test [1], 14 µM in test [2] and 20.3 µM in the test on HepG2.
`CC1=NN(C(=O)c2ccc(F)cc2)C(c2ccccc2O)C1` (stereo not given) registered an IC50 in test [3] of 29.8 µM. Moreover, the EC50 in test [1] came to 35.4 µM; in test [2] it was 50.3 µM; in the test on HepG2 it was 39.2 µM.
Regarding `CC1=NN(S(=O)(=O)c2ccccc2C)C(c2cc(Br)ccc2O)C1` (stereo not given), the EC50 was more than 60 µM in test [1], 48.1 µM in test [2] and 39.3 µM in the test on HepG2.
Molecule `CC1=NN(C(=O)C(F)(F)F)C(c2ccccc2O)C1` (stereo not given) displayed an IC50 in test [3] of 1.86 µM. The EC50 in test [1] was determined as 2.89 µM; in test [2], 2.06 µM; with HepG2, 4.8 µM.
Regarding `COc1ccc(S(=O)(=O)N2N=C(C)CC2c2cc(Br)ccc2O)cc1` (stereo not given), the concentration giving a half-maximal response (EC50) was 20.3 µM in test [1], 21.1 µM in test [2] and 38.2 µM in the test on HepG2.
In the case of `COc1ccc(C(=O)N2N=C(C)CC2c2ccccc2O)cc1` (stereo not given), in test [3], 25 µM corresponded to half-maximal inhibition (IC50). For the same molecule, the figures for the half-maximal effective concentration (EC50) (in test [1]; in test [2]; in the test with HepG2) were 38.5 µM, 45.7 µM and 40.3 µM, respectively.
Molecule `CC1=NN(C(=O)CF)C(c2ccccc2O)C1` (stereo not given) returned an IC50 in test [3] of 4 µM. Further, the values for the EC50 (in test [1]; in test [2]; in the test with HepG2) were 4.26 µM, 8.6 µM and 9.41 µM, respectively.
On to `CC1=NN(S(=O)(=O)c2ccc([N+](=O)[O-])cc2)C(c2cc(Br)ccc2O)C1` (stereo not given), for which the EC50 in test [1] is 22.2 µM; in test [2] it was 27.3 µM; with HepG2, more than 60 µM.
In test [3], `CC[n+]1c(-c2ccccc2)c2cc(N)ccc2c2ccc(N)cc21` [HOMIDIUM BROMIDE] registered a 50% inhibitory concentration (IC50) of 2.18 µM.
Regarding `CC1=NN(S(=O)(=O)c2ccc(F)cc2)C(c2cc(Br)ccc2O)C1` (stereo not given), the EC50 in test [1] is 15.5 µM; in test [2], more than 60 µM; in the test with HepG2, 50.1 µM.
Take `O=c1[nH]cc(F)c(=O)[nH]1` [FLUOROURACIL]: the results for the EC50 (in test [1]; in test [2]; with HepG2) were 3.35 µM, 7.03 µM and 2.21 µM, respectively.
In the case of `CC1=NN(S(=O)(=O)c2ccc(Cl)cc2Cl)C(c2cc(Br)ccc2O)C1` (stereo not given), the values for the EC50 (in test [1]; in test [2]; with HepG2) were 37.9 µM, more than 60 µM and 45.2 µM, respectively.
In the case of `CC1=NN(S(=O)(=O)c2ccc(Cl)cc2)C(c2cc(Br)ccc2O)C1` (stereo not given), the half-maximal effective concentration (EC50) (in test [1]; in test [2]; in the test with HepG2) was more than 60 µM in each case.
Turning to `CC1=NN(C(=O)CCl)C(c2cc(F)ccc2O)C1` (stereo not given), the EC50 worked out at 6.87 µM in test [1], 7 µM in test [2] and 4.21 µM in the test on HepG2.
The like results for `CC1=NN(S(=O)(=O)c2ccccc2)C(c2cc(Br)ccc2O)C1` (stereo not given) were, in that order, more than 60 µM, 55.6 µM and more than 60 µM.
Turning to `CC1=NN(C(=O)CCl)C(c2cc(Br)ccc2O)C1` (stereo not given), the concentration for a half-maximal effect (EC50) came to 10.5 µM in test [1], 9.21 µM in test [2] and 12.3 µM with HepG2.

Source of the values: ChEMBL document CHEMBL3779782, “Identification of human telomerase inhibitors having the core of N-acyl-4,5-dihydropyrazole with anticancer effects” (Bioorg Med Chem Lett, 2016).
